The values below come from ChEMBL document CHEMBL1201862, “PubChem BioAssay data set” (2004).

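Assay format: 96-well plates, 48-hour exposure. The concentration for 50% growth inhibition is given as GI50.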 The source made the active and inactive calls. No stated cut-off is given here; in the data, active = GI50 up to about 1.1 µM and inactive = higher. Starred links: 1 amine or outer side, 2 acyl side, 3 side chain; linkers in the order of their positions; H or OH if unused. Positions of bridges follow the written chain, without caps; N, C: chain ends. Non-standard residues stand in square brackets, D forms with d. Residues, ends and D or L forms follow the SMILES beside them. Chains are numbered I, II in the order given. Actinocin(9to1) = Cc1c2oc3c(C)ccc(C(=O)[*:1])c3nc-2c(C(=O)[*:2])c(N)c1=O; NMeV = CN[CH](C(=O)O)C(C)C; Sar = CNCC(=O)O Bounds are passed on as bounds.

What all share (assay): NCI-60 cell line screen, 48 h
Test [1] deals with MOLT-4.
For test [2], the system named is DU-145.
Test [3] concerns CCRF-CEM.
Test [4] relates to COLO 205.
Test [5] relates to KM12.
In test [6] the test system is ACHN.
Test [7] deals with UACC-257.
Test [8] deals with PC-3.
Test [9] relates to K562.
Test [10] deals with SR.
Test [11] concerns HCT-116.
In test [12] the test system is MDA-MB-435.
Test [13] deals with OVCAR-4.
In test [14] the test system is HT-29.
Test [15] relates to M14.
Test [16] relates to NCI/ADR-RES.
The subject of test [17] is A549.
Test [18] concerns UACC-62.
Test [19] relates to IGROV-1.
For test [20], the system named is SF-539.

In the case of `Cc1ccc(S(=O)(=O)N2CCCN(S(=O)(=O)c3ccc(C)cc3)CC2)cc1`, the GI50 in [1], in test [2], in test [3], in test [4], in test [5] and in test [6] was > 100 µM (inactive) throughout. Also, the GI50 in test [7], in test [8], in [9], in test [10], in test [11] and in test [12] was > 100 µM (inactive) each time. Moreover, the GI50 in test [13] was > 100 µM (inactive); in test [14], > 100 µM (inactive); in [15], > 100 µM (inactive); in test [16], > 100 µM (inactive); in test [17], > 10 µM (inactive).

In the case of `COc1ccc2cc(C(=O)NCCCNC(=O)c3ccc4c(OC)c(OC)ccc4c3)ccc2c1OC`, the GI50 in [1], in test [2], in test [3], in test [4], in test [5] and in test [6] was > 100 µM (inactive) in each case. The GI50 in test [7], in test [8], in [9], in [10], in test [11] and in test [12] was > 100 µM (inactive) each time. Also, the GI50 in [18], in [13], in test [14], in test [16] and in test [17] was > 100 µM (inactive) in each case.

For `Cc1nc2ccccc2n1Cc1nnc2n1N=C(c1ccccc1)CS2`, the GI50 was 27.2 µM (inactive) in [1]; 2.4 µM (inactive) in [19]; 37.5 µM (inactive) in test [2]; 27.9 µM (inactive) in [3]; 30.1 µM (inactive) in [4]; 31.2 µM (inactive) in [5]. Moreover, the GI50 was 47.6 µM (inactive) in test [6]; 22.5 µM (inactive) in test [7]; 16.7 µM (inactive) in [8]; 12.5 µM (inactive) in test [20]; 27.7 µM (inactive) in test [11]; 32.7 µM (inactive) in test [12]. For the same compound, the GI50 is 23.9 µM (inactive) in test [18]; 45.1 µM (inactive) in test [13]; 30.5 µM (inactive) in test [14]; 32.8 µM (inactive) in test [15]; 64.1 µM (inactive) in test [16]; 36.2 µM (inactive) in [17].

As to `C=C1C(=O)O[C@H]2C/C(C=O)=C\[C@H]3O[C@H]3/C(COC(=O)C(C)C)=C/CC12` (stereo not given in full), the GI50 in test [1] was 3.06 µM (inactive); in test [19], 4.65 µM (inactive); in [2] it was 11.1 µM (inactive); in [3] it was 1.83 µM (inactive); in [4], 1.93 µM (inactive); in test [5], 5.46 µM (inactive). In addition, the GI50 was 2.32 µM (inactive) in test [6]; 11.1 µM (inactive) in test [7]; 1.85 µM (inactive) in [8]; 2.9 µM (inactive) in [9]; 2.3 µM (inactive) in test [10]; 21.5 µM (inactive) in test [20]. Moreover, the GI50 in test [11] was 3.05 µM (inactive); in test [12] it was 4.25 µM (inactive); in test [18], 2.2 µM (inactive); in [14] it was 3.07 µM (inactive); in test [16] it was 6.34 µM (inactive); in [17], 16.9 µM (inactive).

With `COc1c(C(=O)/C(=N/Nc2cccc(Cl)c2)C(C)=O)c(O)c(OC)c2occc12`, the GI50 in test [1] was 39.5 µM (inactive); in [19], > 100 µM (inactive); in test [2], > 100 µM (inactive); in test [3] it was 88.1 µM (inactive); in test [4], > 100 µM (inactive); in [5], > 100 µM (inactive). The GI50 in test [6] was 70 µM (inactive); in test [7], > 100 µM (inactive); in test [8], 53.5 µM (inactive); in [9], > 100 µM (inactive); in test [10], > 100 µM (inactive); in [20] it was > 100 µM (inactive). Further, the GI50 is > 100 µM (inactive) in test [11]; > 100 µM (inactive) in [12]; > 100 µM (inactive) in [18]; 95.1 µM (inactive) in test [14]; > 100 µM (inactive) in test [15]; > 100 µM (inactive) in [16]. Further, in test [17], the GI50 is > 100 µM (inactive).

`CC(=O)O[C@H]1CC[C@H]2[C@@H]3CCC4=C/C(=N/OCCN(C)C)CC[C@]4(C)[C@H]3CC[C@]12C`: the GI50 is 5.42 µM (inactive) in test [1]; 13.1 µM (inactive) in test [19]; 16.1 µM (inactive) in test [2]; 2.52 µM (inactive) in test [3]; 2.27 µM (inactive) in test [4]; 5.61 µM (inactive) in test [5]. The GI50 in test [6] was 13.4 µM (inactive); in [7], 7.38 µM (inactive); in [8] it was 12.5 µM (inactive); in test [9], 2.11 µM (inactive); in test [20], 2.52 µM (inactive); in test [11] it was 4.25 µM (inactive). Further, the GI50 in test [12] was 2.19 µM (inactive); in test [18] it was 10.7 µM (inactive); in test [13], 10.9 µM (inactive); in test [14], 2.06 µM (inactive); in test [15], 3.18 µM (inactive); in test [16], 12.6 µM (inactive). In test [17], the GI50 is 12 µM (inactive).

With `CCOC(=O)Cn1nnc2cc(Nc3c(C)[n+]([O-])c4cc(F)c(OCC)cc4[n+]3[O-])ccc21`, the GI50 in [1] was 0.273 µM (active); in test [19] it was 96.2 µM (inactive); in [2], > 100 µM (inactive); in test [3] it was > 100 µM (inactive); in test [5], > 100 µM (inactive); in test [6], 35.9 µM (inactive). For the same compound, the GI50 in [7] was > 100 µM (inactive); in test [8] it was > 100 µM (inactive); in test [9], 7.16 µM (inactive); in [20], > 100 µM (inactive); in test [11], > 100 µM (inactive); in [12], > 100 µM (inactive). Moreover, the GI50 in test [13], in test [14], in test [15] and in test [16] was > 100 µM (inactive) each time.

As for `CC(=O)c1ccc(NCN2C(=O)c3ccccc3C2=O)cc1`, the GI50 in [1], in [19], in [2], in test [3], in [4] and in [5] was > 100 µM (inactive) throughout. Also, the GI50 in test [6], in test [7], in test [8], in [9], in test [20] and in [11] was > 100 µM (inactive) throughout. Also, the GI50 in [12], in [18], in test [13], in [14], in test [15] and in test [16] was > 100 µM (inactive) each time. Moreover, the GI50 in test [17] is > 100 µM (inactive).

On to `NS(=O)(=O)c1ccc(-n2c(-c3cccs3)nc3ccc(I)cc3c2=O)cc1`, for which the GI50 in [1] was 52.8 µM (inactive); in test [19], 21.7 µM (inactive); in test [2] it was 18.8 µM (inactive); in test [4] it was 19.7 µM (inactive); in [5], 24.1 µM (inactive); in test [6] it was 21.4 µM (inactive). The GI50 is 0.0522 µM (active) in test [7]; 26.6 µM (inactive) in [8]; 35 µM (inactive) in test [10]; 17.3 µM (inactive) in [11]; 18.9 µM (inactive) in test [12]; 17.9 µM (inactive) in [18]. For the same compound, the GI50 in [13] was 24.7 µM (inactive); in test [14], 31.7 µM (inactive); in test [15] it was 23.7 µM (inactive); in [16], 29.1 µM (inactive); in test [17], 18.7 µM (inactive).

With `COc1ccc(-c2oc3cc(OC(C)=O)cc(OC(C)=O)c3c(=O)c2OC)cc1`, the GI50 in test [1] is 20.2 µM (inactive); in test [19], 16.2 µM (inactive); in [2] it was 15.5 µM (inactive); in [3], 18.2 µM (inactive); in [4], 15.9 µM (inactive); in [6], 17 µM (inactive). In addition, the GI50 in test [7] is 19.7 µM (inactive); in [8], 17.9 µM (inactive); in test [9], 9.77 µM (inactive); in [10] it was 13.5 µM (inactive); in [11], 21 µM (inactive); in [12] it was 10.4 µM (inactive). Further, the GI50 in test [18] is 4.19 µM (inactive); in test [14], 16.7 µM (inactive); in test [15], 14.5 µM (inactive); in test [16] it was 14.7 µM (inactive); in [17] it was 20.7 µM (inactive).

With `Cc1c2oc3c(C)ccc(C(=O)NC4C(=O)NC(Cc5ccc(O)cc5)C(=O)N5CCCC5C(=O)N(C)CC(=O)N(C)C(C(C)C)C(=O)OC4C)c3nc-2c(C(=O)NC2C(=O)NC(Cc3ccc(O)cc3)C(=O)N3CCCC3C(=O)N(C)CC(=O)N(C)C(C(C)C)C(=O)OC2C)c(N)c1=O` (stereo not given) (I: TYP[Sar][NMeV] / II: TYP[Sar][NMeV]; ester I:1-I:C, II:1-II:C; linker I:N-II:N via Actinocin(9to1); configuration not given here), the GI50 in test [1] is 0.178 µM (active); in [19], 0.149 µM (active); in [2], 1.43 µM (inactive); in test [4], 0.403 µM (active); in [5], 0.577 µM (active); in [6] it was 0.397 µM (active). For the same compound, the GI50 in test [7] is 1.56 µM (inactive); in [8] it was 4.11 µM (inactive); in [9], 0.354 µM (active); in [20], 0.726 µM (active); in test [11], 0.11 µM (active); in [12], 1.93 µM (inactive). Moreover, the GI50 in test [18] is 1.14 µM (inactive); in test [13], 1.14 µM (inactive); in test [14], 0.755 µM (active); in [15] it was 2.55 µM (inactive); in [16] it was > 94 µM (inactive); in test [17], 0.635 µM (active).
